Test results taken from the Kinase Knowledgebase extract (Sharma et al. 2016).

What was measured:
PIK3CG (human) = PIK3CG (human) (UniProt P48736); test: Assessment of PI3KCG Kinase Activity
PIK3CD (Human) = PIK3CD (Human) (UniProt O00329); test: Assessment of PI3KCD Kinase Activity
PIK3CD (Human), sequence (O00329 whole entry, looked up): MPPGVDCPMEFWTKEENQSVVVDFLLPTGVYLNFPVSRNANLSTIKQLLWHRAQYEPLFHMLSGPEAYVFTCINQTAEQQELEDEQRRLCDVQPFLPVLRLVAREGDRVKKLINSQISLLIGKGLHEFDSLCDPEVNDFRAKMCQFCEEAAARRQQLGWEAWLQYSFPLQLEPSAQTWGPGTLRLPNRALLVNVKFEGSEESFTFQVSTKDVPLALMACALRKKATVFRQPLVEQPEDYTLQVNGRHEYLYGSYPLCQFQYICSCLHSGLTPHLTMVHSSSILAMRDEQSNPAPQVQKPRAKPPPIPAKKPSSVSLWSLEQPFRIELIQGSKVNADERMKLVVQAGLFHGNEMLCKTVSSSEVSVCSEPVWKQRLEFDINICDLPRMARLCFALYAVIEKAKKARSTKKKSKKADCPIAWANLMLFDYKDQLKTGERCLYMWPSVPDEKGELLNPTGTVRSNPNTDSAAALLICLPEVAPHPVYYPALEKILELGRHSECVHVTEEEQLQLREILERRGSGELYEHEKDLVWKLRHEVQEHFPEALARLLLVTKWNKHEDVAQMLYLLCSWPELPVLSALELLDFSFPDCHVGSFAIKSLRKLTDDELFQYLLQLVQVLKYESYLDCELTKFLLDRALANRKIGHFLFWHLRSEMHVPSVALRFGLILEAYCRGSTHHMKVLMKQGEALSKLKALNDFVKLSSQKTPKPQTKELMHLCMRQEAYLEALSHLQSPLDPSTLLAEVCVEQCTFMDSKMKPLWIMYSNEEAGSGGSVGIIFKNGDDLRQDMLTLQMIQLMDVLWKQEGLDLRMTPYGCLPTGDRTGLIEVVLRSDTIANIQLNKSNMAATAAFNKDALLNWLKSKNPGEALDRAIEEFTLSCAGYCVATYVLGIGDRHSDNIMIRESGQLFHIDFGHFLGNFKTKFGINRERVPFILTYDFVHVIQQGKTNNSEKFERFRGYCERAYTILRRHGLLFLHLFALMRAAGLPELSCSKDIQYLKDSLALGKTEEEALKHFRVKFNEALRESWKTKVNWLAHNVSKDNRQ

PIK3CG (human), sequence (P48736 whole entry, looked up): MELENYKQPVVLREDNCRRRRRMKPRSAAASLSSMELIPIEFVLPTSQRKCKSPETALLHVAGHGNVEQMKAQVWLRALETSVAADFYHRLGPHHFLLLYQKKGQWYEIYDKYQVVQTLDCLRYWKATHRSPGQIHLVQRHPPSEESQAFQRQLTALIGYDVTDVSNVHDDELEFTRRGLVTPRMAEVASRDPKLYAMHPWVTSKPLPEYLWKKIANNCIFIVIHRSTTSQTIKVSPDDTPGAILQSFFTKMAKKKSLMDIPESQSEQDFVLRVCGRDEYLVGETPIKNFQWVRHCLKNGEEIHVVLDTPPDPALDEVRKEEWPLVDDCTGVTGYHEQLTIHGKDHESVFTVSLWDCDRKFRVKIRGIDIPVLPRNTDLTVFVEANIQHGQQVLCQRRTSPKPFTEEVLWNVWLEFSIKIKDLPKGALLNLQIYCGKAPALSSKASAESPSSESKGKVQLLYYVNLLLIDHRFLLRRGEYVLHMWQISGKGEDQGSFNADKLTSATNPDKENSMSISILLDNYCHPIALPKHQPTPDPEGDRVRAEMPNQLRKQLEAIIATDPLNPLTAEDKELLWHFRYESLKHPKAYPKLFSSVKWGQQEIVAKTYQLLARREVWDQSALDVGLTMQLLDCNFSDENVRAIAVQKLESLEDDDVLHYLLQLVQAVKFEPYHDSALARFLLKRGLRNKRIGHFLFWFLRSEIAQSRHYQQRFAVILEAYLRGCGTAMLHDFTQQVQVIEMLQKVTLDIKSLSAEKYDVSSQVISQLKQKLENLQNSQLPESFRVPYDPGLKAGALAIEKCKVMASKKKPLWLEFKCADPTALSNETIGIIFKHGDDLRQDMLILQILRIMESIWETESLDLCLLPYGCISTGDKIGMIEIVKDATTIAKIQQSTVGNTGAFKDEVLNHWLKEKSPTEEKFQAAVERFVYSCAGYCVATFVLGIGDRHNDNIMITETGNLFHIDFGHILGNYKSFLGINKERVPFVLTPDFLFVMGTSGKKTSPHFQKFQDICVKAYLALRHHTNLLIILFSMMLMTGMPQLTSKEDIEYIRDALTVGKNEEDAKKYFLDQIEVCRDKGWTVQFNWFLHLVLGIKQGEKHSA

Row | SMILES | IC50 (PIK3CG (human)) | IC50 (PIK3CD (Human))
1 | Cc1csc2nc(Cn3nc(Br)c4c(N)ncnc43)n(-c3ccccc3C(C)C)c(=O)c12 | < 100 nM | < 100 nM
2 | Cc1ccccc1-n1c(Cn2nc(-c3ccc(F)c(O)c3)c3c(N)ncnc32)cc2ccccc2c1=O | < 100 nM | < 100 nM
3 | Cc1cccc2cc(Cn3nc(I)c4c(N)ncnc43)n(C3CC3)c(=O)c12 | < 100 nM | < 100 nM
4 | Cc1ccccc1-n1c(C(C)Nc2ncnc3[nH]cnc23)cc2cccc(C)c2c1=O (stereo not drawn) | < 100 nM | < 100 nM
5 | CC(=O)Nc1nc2ccc(-c3nn(Cc4cc5ccccc5c(=O)n4-c4ccccc4C)c4ncnc(N)c34)cc2s1 | < 100 nM | < 100 nM
6 | COc1ccc(-c2nn(Cc3cc4cccc(C)c4c(=O)n3-c3ccccc3C)c3ncnc(N)c23)cc1 | < 100 nM | –
7 | Cc1cccc2cc(Cn3nc(C=C4SC(=O)NC4=O)c4c(N)ncnc43)n(-c3ccccc3F)c(=O)c12 | < 100 nM | < 100 nM
8 | CC(=O)Nc1nc2ccc(-c3nn(Cc4cc5cccc(C)c5c(=O)n4-c4cccc(F)c4)c4ncnc(N)c34)cc2s1 | < 100 nM | < 100 nM
9 | CCc1ccccc1-n1c(Cn2nc(-c3cccc(O)c3)c3c(N)ncnc32)nc2scc(C)c2c1=O | < 100 nM | < 100 nM
10 | Cc1cccc2cc(Cn3nc(I)c4c(N)ncnc43)n(C3CCCCC3)c(=O)c12 | < 100 nM | –
11 | Cc1csc2nc(Cn3nc(I)c4c(N)ncnc43)n(-c3ccccc3C(C)C)c(=O)c12 | < 100 nM | < 100 nM
12 | Cc1cccc2cc(Cn3nc(-c4cccc(O)c4)c4c(N)ncnc43)n(-c3ccccc3C(C)C)c(=O)c12 | < 100 nM | < 100 nM
13 | COc1cc(-c2nn(Cc3cc4cccc(C)c4c(=O)n3-c3ccccc3C)c3ncnc(N)c23)ccc1Cl | < 100 nM | –
14 | Cc1ccccc1-n1c(Cn2nc(-c3ccc(Cl)c(O)c3)c3c(N)ncnc32)cc2cccc(C)c2c1=O | < 100 nM | < 100 nM
15 | Cc1csc2nc(Cn3nc(-c4ccc(O)c(F)c4)c4c(N)ncnc43)n(-c3ccccc3F)c(=O)c12 | < 100 nM | –
16 | Cc1ccccc1-n1c(Cn2nc(-c3cccc(O)c3)c3c(N)ncnc32)cc2cccc(F)c2c1=O | < 100 nM | < 100 nM
17 | Cc1cccc2cc(Cn3nc(-c4cc(O)cc(F)c4)c4c(N)ncnc43)n(-c3ccccc3C(C)C)c(=O)c12 | < 100 nM | < 100 nM
18 | CCc1ccccc1-n1c(Cn2nc(-c3cccc(O)c3)c3c(N)ncnc32)cc2cccc(C)c2c1=O | < 100 nM | < 100 nM
19 | COc1ccccc1-n1c(Cn2nc(-c3cc(O)cc(F)c3)c3c(N)ncnc32)cc2cccc(C)c2c1=O | < 100 nM | < 100 nM
20 | Cc1cccnc1-n1c(Cn2nc(-c3cc(O)cc(F)c3)c3c(N)ncnc32)cc2cccc(C)c2c1=O | < 100 nM | < 100 nM
21 | CCc1ccccc1-n1c(Cn2nc(-c3cc(O)cc(F)c3)c3c(N)ncnc32)nc2scc(C)c2c1=O | < 100 nM | < 100 nM
22 | CC(=O)Nc1nc2ccc(-c3nn(Cc4cc5cccc(C)c5c(=O)n4-c4ccccc4C)c4ncnc(N)c34)cc2s1 | < 100 nM | –
23 | Cc1ccccc1-n1c(Cn2nc(-c3ccc4nc(N)ccc4c3)c3c(N)ncnc32)cc2cccc(C)c2c1=O | < 100 nM | < 100 nM
24 | Cc1cccc2cc(C(C)Nc3ncnc4[nH]cnc34)n(-c3ccccc3F)c(=O)c12 (stereo not drawn) | < 100 nM | < 100 nM
25 | Cc1cccc2cc(Cn3nc(-c4cc(O)cc(F)c4)c4c(N)ncnc43)n(-c3ccccc3F)c(=O)c12 | < 100 nM | < 100 nM

Row | SMILES | IC50 (PIK3CG (human)) | IC50 (PIK3CD (Human))
26 | Cc1ccccc1-n1c(Cn2nc(C=CC(N)=O)c3c(N)ncnc32)cc2cccc(C)c2c1=O | < 100 nM | < 100 nM
27 | Cc1csc2nc(Cn3nc(-c4cc(O)cc(F)c4)c4c(N)ncnc43)n(-c3ccccc3F)c(=O)c12 | < 100 nM | < 100 nM
28 | CCc1ccccc1-n1c(Cn2nc(-c3cn[nH]c3)c3c(N)ncnc32)cc2cccc(C)c2c1=O | < 100 nM | < 100 nM
29 | Cc1ccccc1-n1c(Cn2nc(-c3cnc4[nH]ccc4c3)c3c(N)ncnc32)cc2cccc(C)c2c1=O | < 100 nM | < 100 nM
30 | Cc1ccccc1-n1c(Cn2nc(-c3ccc4cc[nH]c4c3)c3c(N)ncnc32)cc2cccc(C)c2c1=O | < 100 nM | < 100 nM
31 | Cc1csc2nc(Cn3nc(C#C[C@@H](C)O)c4c(N)ncnc43)n(-c3ccccc3F)c(=O)c12 | < 100 nM | < 100 nM
32 | Cc1ccccc1-n1c(Cn2nc(-c3ccc(F)c(O)c3)c3c(N)ncnc32)nc2scc(C)c2c1=O | < 100 nM | < 100 nM
33 | Cc1ccccc1-n1c(Cn2nc(-c3cc(O)cc(F)c3)c3c(N)ncnc32)nc2scc(C)c2c1=O | < 100 nM | < 100 nM
34 | Cc1cccc2cc(Cn3nc(-c4cc(O)cc(F)c4)c4c(N)ncnc43)n(-c3ccccc3O)c(=O)c12 | < 100 nM | < 100 nM
35 | Cc1cccc2cc(Cn3nc(C#C[C@@H](C)O)c4c(N)ncnc43)n(-c3ccccc3C(C)C)c(=O)c12 | < 100 nM | < 100 nM
36 | COc1ccccc1-n1c(Cn2nc(-c3cccc(O)c3)c3c(N)ncnc32)cc2cccc(C)c2c1=O | < 100 nM | < 100 nM
37 | Cc1ccccc1-n1c(Cn2nc(-c3ccc(O)c(F)c3)c3c(N)ncnc32)cc2cccc(C)c2c1=O | < 100 nM | < 100 nM
38 | Cc1ccccc1-n1c(Cn2nc(-c3ccc(F)c(O)c3)c3c(N)ncnc32)cc2cccc(C)c2c1=O | < 100 nM | < 100 nM
39 | Cc1cccc2cc(Cn3nc(-c4cccc(O)c4)c4c(N)ncnc43)n(-c3ccccc3)c(=O)c12 | < 100 nM | < 100 nM
40 | Cc1ccccc1-n1c(Cn2nc(-c3cn[nH]c3)c3c(N)ncnc32)cc2cccc(C)c2c1=O | < 100 nM | < 100 nM
41 | Cc1cccc2cc(Cn3nc(-c4cn[nH]c4)c4c(N)ncnc43)n(-c3ccccc3C(C)C)c(=O)c12 | < 100 nM | < 100 nM
42 | Cc1ccccc1-n1c(Cn2nc(I)c3c(N)ncnc32)cc2ccccc2c1=O | < 100 nM | –
43 | Cc1cccc2cc(Cn3nc(-c4ccc(O)c(F)c4)c4c(N)ncnc43)n(-c3ccccc3F)c(=O)c12 | < 100 nM | –
44 | Cc1ccccc1-n1c(Cn2nc(-c3ccc(O)c(Cl)c3)c3c(N)ncnc32)nc2scc(C)c2c1=O | < 100 nM | < 100 nM
45 | COc1ccccc1-n1c(Cn2nc(-c3cc(O)cc(F)c3)c3c(N)ncnc32)nc2scc(C)c2c1=O | < 100 nM | < 100 nM
46 | Cc1ccccc1-n1c(Cn2nc(Br)c3c(N)ncnc32)cc2cccc(C)c2c1=O | < 100 nM | < 100 nM
47 | Cc1cccnc1-n1c(Cn2nc(-c3ccc(Cl)c(O)c3)c3c(N)ncnc32)cc2cccc(C)c2c1=O | < 100 nM | < 100 nM
48 | Cc1cccc2cc(Cn3nc(-c4ccc(F)c(O)c4)c4c(N)ncnc43)n(C(C)C)c(=O)c12 | < 100 nM | < 100 nM
49 | Cc1ccccc1-n1c(Cn2nc(-c3cc(O)cc(F)c3)c3c(N)ncnc32)cc2ccccc2c1=O | < 100 nM | < 100 nM
50 | Cc1ccccc1-n1c(Cn2nc(-c3cccc(O)c3)c3c(N)ncnc32)nc2scc(C)c2c1=O | < 100 nM | < 100 nM

Row | SMILES | IC50 (PIK3CG (human)) | IC50 (PIK3CD (Human))
51 | Cc1csc2nc(Cn3nc(-c4cccc(O)c4)c4c(N)ncnc43)n(-c3ccccc3C(F)(F)F)c(=O)c12 | < 100 nM | < 100 nM
52 | Cc1ccccc1-n1c(Cn2nc(-c3ccc4cc[nH]c4c3)c3c(N)ncnc32)nc2scc(C)c2c1=O | < 100 nM | < 100 nM
53 | Cc1ccccc1-n1c(Cn2nc(-c3ccc(F)c(O)c3)c3c(N)ncnc32)cc2cccc(F)c2c1=O | < 100 nM | < 100 nM
54 | Cc1ccccc1-n1c(Cn2nc(-c3ccc4ncnc(N)c4c3)c3c(N)ncnc32)cc2cccc(C)c2c1=O | < 100 nM | < 100 nM
55 | Cc1ccccc1-n1c(Cn2nc(C=C3SC(=O)NC3=O)c3c(N)ncnc32)cc2cccc(C)c2c1=O | < 100 nM | < 100 nM
56 | Cc1cccc2cc(Cn3nc(-c4cc(O)cc(F)c4)c4c(N)ncnc43)n(-c3ccccc3)c(=O)c12 | < 100 nM | < 100 nM
57 | Cc1ccccc1-n1c(Cn2nc(-c3ccn[nH]3)c3c(N)ncnc32)cc2cccc(C)c2c1=O | < 100 nM | –
58 | Cc1ccccc1-n1c(Cn2nc(-c3ccc4nc(N)sc4c3)c3c(N)ncnc32)cc2cccc(C)c2c1=O | < 100 nM | < 100 nM
59 | Cc1cccnc1-n1c(Cn2nc(-c3ccc(F)c(O)c3)c3c(N)ncnc32)cc2cccc(C)c2c1=O | < 100 nM | < 100 nM
60 | Cc1ccccc1-n1c(Cn2nc(-c3ccc(Cl)c(O)c3)c3c(N)ncnc32)cc2ccccc2c1=O | < 100 nM | < 100 nM
61 | Cc1cccc2cc(Cn3nc(-c4cc(O)cc(F)c4)c4c(N)ncnc43)n(-c3ccccc3Cl)c(=O)c12 | < 100 nM | < 100 nM
62 | Cc1cccc2cc(Cn3nc(-c4cccc(O)c4)c4c(N)ncnc43)n(C(C)C)c(=O)c12 | < 100 nM | < 100 nM
63 | Cc1ccccc1-n1c(Cn2nc(-c3ccc(O)cc3)c3c(N)ncnc32)cc2cccc(C)c2c1=O | < 100 nM | –
64 | COc1ccc(-c2nn(Cc3cc4cccc(C)c4c(=O)n3-c3ccccc3C)c3ncnc(N)c23)cc1OC | < 100 nM | –
65 | Cc1cccc2cc(Cn3nc(-c4ccc(O)c(Cl)c4)c4c(N)ncnc43)n(-c3ccccc3F)c(=O)c12 | < 100 nM | –
66 | Cc1csc2nc(Cn3nc(I)c4c(N)ncnc43)n(-c3ccccc3F)c(=O)c12 | – | < 100 nM
67 | Cc1ccccc1-n1c(Cn2nc(-c3cc(O)cc(F)c3)c3c(N)ncnc32)nc2sc(C)c(C)c2c1=O | – | < 100 nM
68 | Cc1cccc2cc(Cn3nc(C#C[C@@H](C)O)c4c(N)ncnc43)n(-c3ccccc3O)c(=O)c12 | – | < 100 nM
69 | COc1ccccc1-n1c(Cn2nc(-c3cccc(O)c3)c3c(N)ncnc32)nc2scc(C)c2c1=O | – | < 100 nM
70 | Cc1csc2nc(Cn3nc(Br)c4c(N)ncnc43)n(-c3ccccc3C(F)(F)F)c(=O)c12 | – | < 100 nM
71 | Cc1ccccc1-n1c(Cn2nc(C#C[C@@H](C)O)c3c(N)ncnc32)cc2nccc(C)c2c1=O | – | < 100 nM
72 | Cc1ccccc1-n1c(Cn2nc(I)c3c(N)ncnc32)nc2scc(C)c2c1=O | – | < 100 nM
73 | Cc1ccccc1-n1c(Cn2nc(-c3cc(O)cc(F)c3)c3c(N)ncnc32)cc2cccc(F)c2c1=O | – | < 100 nM
74 | Cc1cccc2cc(Cn3nc(-c4cc(O)cc(F)c4)c4c(N)ncnc43)n(C3CCC3)c(=O)c12 | – | < 100 nM
